Assay: xn = mol fraction of the nth substance listed

CC[n+]1ccn(C)c1.[Cl-] + CC#N
Conditions | viscosity [mPa·s]
373 K, 100 kPa, x2 = 0.284 | 12

CC[n+]1ccn(C)c1C.F[B-](F)(F)F + CC#N
viscosity [mPa·s], 101.3 kPa
Conditions | 293.15 K | 298.15 K | 303.15 K | 308.15 K | 313.15 K | 318.15 K | 323.15 K | 328.15 K | 333.15 K
x1 = 0.02106 | 0.518 | 0.505 | 0.476 | 0.456 | 0.442 | 0.428 | 0.414 | 0.401 | 0.389
x1 = 0.04617 | 0.648 | 0.618 | 0.59 | 0.566 | 0.543 | 0.52 | 0.501 | 0.483 | 0.465
x1 = 0.07663 | 0.846 | 0.808 | 0.768 | 0.732 | 0.698 | 0.667 | 0.636 | 0.608 | 0.583
x1 = 0.1143 | 1.116 | 1.051 | 0.995 | 0.943 | 0.893 | 0.85 | 0.809 | 0.769 | 0.733
x1 = 0.1622 | 1.68 | 1.58 | 1.48 | 1.39 | 1.31 | 1.24 | 1.17 | 1.105 | 1.049
x1 = 0.2251 | 2.63 | 2.44 | 2.26 | 2.11 | 1.97 | 1.84 | 1.73 | 1.62 | 1.53
x1 = 0.3112 | 4.25 | 3.81 | 3.48 | 3.2 | 2.94 | 2.71 | 2.51 | 2.33 | 2.16
x1 = 0.4365 | 8.05 | 7.11 | 6.37 | 5.75 | 5.18 | 4.7 | 4.27 | 3.91 | 3.57

CS(C)=O + CC(=O)[O-].CC[NH2+]CC
Conditions | viscosity [mPa·s]
298.15 K, 101 kPa, x2 = 0 | 2.01

CS(C)=O + CC(=O)[O-].CC[NH+](CC)CC
101 kPa, x1 = 1
Conditions | viscosity [mPa·s]
298.15 K | 1.99
303.15 K | 1.79
308.15 K | 1.65

CC[n+]1ccn(C)c1C.F[B-](F)(F)F + CC(C)=O
viscosity [mPa·s], 101.3 kPa
Conditions | x1 = 0.02954 | x1 = 0.06403 | x1 = 0.1051 | x1 = 0.1544 | x1 = 0.215 | x1 = 0.2913 | x1 = 0.3887 | x1 = 0.5201
293.15 K | 0.42 | 0.615 | 0.797 | 1.19 | 1.82 | 3.37 | 7.01 | 15.8
298.15 K | 0.402 | 0.59 | 0.767 | 1.119 | 1.7 | 3.09 | 6.27 | 13.2
303.15 K | 0.384 | 0.563 | 0.726 | 1.048 | 1.59 | 2.81 | 5.66 | 11.59
308.15 K | 0.368 | 0.54 | 0.687 | 0.986 | 1.48 | 2.57 | 5.13 | 10.2
313.15 K | 0.354 | 0.516 | 0.652 | 0.929 | 1.38 | 2.36 | 4.67 | 9.03
318.15 K | 0.34 | 0.496 | 0.62 | 0.874 | 1.29 | 2.16 | 4.26 | 8.14
323.15 K | 0.327 | 0.478 | 0.588 | 0.825 | 1.22 | 1.96 | 3.91 | 7.34

CCCC[N+](CCCC)(CCCC)CCCC.[Cl-] + CC(C)C[C@H](N)C(=O)O
100 kPa
Conditions | electrical conductivity, 313.15 K [S/m] | electrical conductivity, 323.15 K [S/m] | electrical conductivity, 333.15 K [S/m] | electrical conductivity, 343.15 K [S/m] | electrical conductivity, 353.15 K [S/m] | viscosity, 313.15 K [mPa·s] | viscosity, 323.15 K [mPa·s] | viscosity, 333.15 K [mPa·s] | viscosity, 343.15 K [mPa·s] | viscosity, 353.15 K [mPa·s]
x1 = 0.8889 | 0.0188 | 0.0377 | 0.0631 | 0.0885 | 0.12 | 1070 | 444 | 219 | 123 | 76
x1 = 0.9 | 0.0149 | 0.027 | 0.0441 | 0.068 | 0.0891 | 940 | 517 | 259 | 146 | 88.1
x1 = 0.9091 | 0.0194 | 0.0302 | 0.054 | 0.0761 | 0.0971 | 890 | 410 | 197 | 114 | 99

From the CheMixHub ionic liquid set
